Experimental data taken from US20080102497A1, “ENZYMATIC HYDROLYSIS OF STARCH” (priority 2006, published 2008).
Several values for one entry are separate records, joined by “and”; a condition that tells them apart may be missing. Equal values may be shown once. Read-outs that look alike come from different tables or passages of the source.

How the values were obtained:
[1] = molecular target: α-amylase from Bacillus licheniformis (Bacillus licheniformis, UniProt P06278); assay: hydrolysis of cooked dent corn starch with other additives; type: biochemical; conditions: for effect on rate of enzymatic hydrolysis (in words): 10 mM additive, cooked dent corn starch; for Relative Activity: cooked dent corn starch 0.5%, pH 5.2, 37° C., 10 min
Method: The α-amylase from Bacillus licheniformis was added to a sodium acetate buffer solution, pH 5.2, […], di-sodium EDTA, NH4^+, Sr^++, Na^+, K^+, Al^+++, or Ba^++ and 0.5% by weight cooked dent corn starch. The separate reaction mixtures were incubated at 37° C. for 10 minutes. The control reaction mixture contained enzyme, buffer, and starch but no additive. The starch hydrolysis reaction was stopped by combining the reaction mixture with a solution containing DNSA and heating for 30 min at 85° C. The absorbance of the control and test samples was measured at 562 nm to monitor the amount of reducing sugar in each sample.

[2] = molecular target: β-amylase from barley (Hordeum vulgare, UniProt P16098); assay: as above; type: biochemical; conditions: for effect on rate of enzymatic hydrolysis (in words): 10 mM additive, cooked dent corn starch; for Relative Activity: cooked dent corn starch 0.5%, pH 5.2, 37° C., 10 min
Method: […] The separate reaction mixtures were incubated at 37° C. for 10 minutes. The control reaction mixture contained enzyme, buffer, and starch but no additive. The starch hydrolysis reaction was stopped by combining the reaction mixture with a solution containing DNSA and heating for 30 min at 85° C. The absorbance of the control and test samples was measured at […] to monitor the amount of reducing sugar in each sample.

[3] = molecular target: glucoamylase from Aspergillus Niger (Aspergillus niger, UniProt P69328); assay: as above; type: biochemical; conditions: for effect on rate of enzymatic hydrolysis (in words): 10 mM additive, cooked dent corn starch; for Relative Activity: cooked dent corn starch 0.5%, pH 5.2, 37° C., 10 min
Method: The glucoamylase from Aspergillus Niger was added to a sodium acetate buffer solution, pH 5.2, comprising no metal or 10 mM Fe^++, Mg^++, Li^+, Zn^++, Cu^++, Ca^++, di-sodium EDTA, NH4^+, Sr^++, Na^+, K^+, Al^+++, or Ba^++ and 0.5% by weight cooked dent corn starch. The separate reaction mixtures were incubated at 37° C. for 10 minutes. The control reaction mixture contained enzyme, buffer, and starch but no additive. The starch hydrolysis reaction was stopped by combining the reaction mixture with a solution containing DNSA and heating for 30 min at 85° C. The absorbance of the control and test samples was measured at 562 nm to monitor the amount of reducing sugar in each sample.

[4] = tested on: enzyme mixture of purified glucoamylase from mushroom and purified α-amylase from barley; assay: hydrolysis of raw corn starch by enzyme mixture, reducing sugar by DNSA; type: biochemical; conditions: for Relative Activity: 10 mM additive, raw corn starch, pH 5.3, 37° C., 20 min; for effect on hydrolysis of raw corn starch (in words): summary of Table 2
Method: Enzyme mixture was also pre-incubated with 10 mM Fe^++, Cu^++, Ca^++, Mg^++, or disodium ethylenediamine-tetraacetic acid (EDTA). Thereafter, 40 μl of each pre-incubation solution was added to 15 mg raw corn starch, and the reaction mixture incubated at 37° C. for 20 minutes. The control reaction mixture contained substrate, enzyme, and buffer but no additional metal ions. The starch hydrolysis reaction was stopped by combining the reaction mixture with a solution containing 3,5 dinitrosalicylic acid (DNSA) and heating for 30 min at 85° C. The absorbance of the control and test samples was measured at 562 nm to monitor the amount of reducing sugar in each sample.

[5] = tested on: glucoamylase from Rhizopus sp.; conditions: 1.0 mM manganese salt, raw corn starch, pH 5.3, 37° C.
Method: An enzyme solution of the glucoamylase from Rhizopus sp. Was prepared in a sodium acetate buffer, pH 5.3, comprising 1.0 mM manganese chloride, manganese acetate, or manganese sulfate. Thereafter, 40 μl of each enzyme solution was added to 15 mg raw corn starch and the reaction mixtures incubated at 37° C. for 5, 10, 15, 20, or 25 minutes. The starch hydrolysis reaction was stopped by combining the reaction mixture with a solution containing DNSA and heating for 30 min at 85° C. The absorbance of the control and test samples was measured at 562 nm to monitor the amount of reducing sugar in each sample.

Chain of β-amylase from barley (P16098 whole entry): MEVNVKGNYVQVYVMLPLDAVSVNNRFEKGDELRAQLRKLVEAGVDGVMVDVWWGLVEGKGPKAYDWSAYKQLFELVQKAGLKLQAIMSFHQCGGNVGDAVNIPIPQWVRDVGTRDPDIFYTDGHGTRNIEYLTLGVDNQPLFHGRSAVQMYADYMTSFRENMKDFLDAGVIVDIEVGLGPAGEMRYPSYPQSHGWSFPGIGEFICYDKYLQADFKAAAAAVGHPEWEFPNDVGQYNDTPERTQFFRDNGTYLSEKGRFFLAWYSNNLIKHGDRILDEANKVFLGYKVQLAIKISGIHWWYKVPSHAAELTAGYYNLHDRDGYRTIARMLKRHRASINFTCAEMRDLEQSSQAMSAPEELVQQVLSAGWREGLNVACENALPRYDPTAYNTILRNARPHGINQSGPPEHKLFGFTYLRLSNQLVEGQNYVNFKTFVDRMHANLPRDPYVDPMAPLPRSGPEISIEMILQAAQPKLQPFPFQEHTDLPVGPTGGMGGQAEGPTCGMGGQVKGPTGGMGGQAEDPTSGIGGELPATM
Chain of α-amylase from Bacillus licheniformis (P06278 30-512): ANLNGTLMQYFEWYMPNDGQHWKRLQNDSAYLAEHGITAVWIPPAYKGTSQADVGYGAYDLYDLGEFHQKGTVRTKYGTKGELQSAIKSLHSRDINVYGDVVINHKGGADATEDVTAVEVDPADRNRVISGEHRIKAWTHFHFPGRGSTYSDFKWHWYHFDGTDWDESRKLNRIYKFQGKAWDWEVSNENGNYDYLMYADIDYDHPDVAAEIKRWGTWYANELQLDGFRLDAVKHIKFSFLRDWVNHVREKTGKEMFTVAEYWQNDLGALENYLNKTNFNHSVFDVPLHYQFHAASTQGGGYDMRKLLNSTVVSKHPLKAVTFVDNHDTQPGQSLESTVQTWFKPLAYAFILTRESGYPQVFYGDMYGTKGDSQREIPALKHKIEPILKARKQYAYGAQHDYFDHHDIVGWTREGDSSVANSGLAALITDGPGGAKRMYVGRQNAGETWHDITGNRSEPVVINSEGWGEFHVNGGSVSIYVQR
Chain of glucoamylase from Aspergillus Niger (P69328 25-640): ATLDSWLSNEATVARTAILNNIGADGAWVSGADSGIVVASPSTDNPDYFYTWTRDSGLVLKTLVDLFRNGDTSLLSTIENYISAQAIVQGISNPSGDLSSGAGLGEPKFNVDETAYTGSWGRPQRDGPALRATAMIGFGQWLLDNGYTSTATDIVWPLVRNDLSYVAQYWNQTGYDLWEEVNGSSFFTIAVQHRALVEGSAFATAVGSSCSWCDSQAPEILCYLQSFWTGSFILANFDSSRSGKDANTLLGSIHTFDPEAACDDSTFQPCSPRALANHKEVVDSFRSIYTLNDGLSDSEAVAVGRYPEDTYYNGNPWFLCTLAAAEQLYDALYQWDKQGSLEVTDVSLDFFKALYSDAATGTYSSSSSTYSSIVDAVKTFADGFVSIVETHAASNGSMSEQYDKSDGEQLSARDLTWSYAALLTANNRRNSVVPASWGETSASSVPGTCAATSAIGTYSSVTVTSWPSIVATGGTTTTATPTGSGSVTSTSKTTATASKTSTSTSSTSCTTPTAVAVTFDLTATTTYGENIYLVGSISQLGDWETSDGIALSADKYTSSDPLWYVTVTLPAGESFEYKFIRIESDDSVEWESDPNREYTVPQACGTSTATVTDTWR

Molecule | effect on rate of enzymatic hydrolysis (in words) [1] | Relative Activity ([1]; Additive (10 mM)) | effect on rate of enzymatic hydrolysis (in words) [2] | Relative Activity ([2]; Additive (10 mM)) | effect on rate of enzymatic hydrolysis (in words) [3] | Relative Activity ([3]; Additive (10 mM)) | Relative Activity [4] [%] | effect on hydrolysis of raw corn starch (in words) [4] | % Conversion ([5]; 5 minutes) [%] | % Conversion ([5]; 10 minutes) [%] | % Conversion ([5]; 15 minutes) [%] | % Conversion ([5]; 20 minutes) [%] | % Conversion ([5]; 25 minutes) [%] | % Conversion ([5]; time 0) [%] | Relative Activity ([1]; additive 1 mM) [%] | Relative Activity ([2]; additive 1 mM) | Relative Activity ([3]; additive 1 mM) [%]
[K+] [K^+, potassium ion] | does not increase the enzymatic rate of hydrolysis | 82.8% | do not significantly increase the rate of enzymatic hydrolysis | 101.1% | increase the rate of enzymatic hydrolysis | 113.3% | – | – | – | – | – | – | – | – | – | – | –
[Cu+2] [Cu^++] | does not increase the enzymatic rate of hydrolysis | 30.0% | do not significantly increase the rate of enzymatic hydrolysis | 6.7% | do not significantly increase the rate of enzymatic hydrolysis | 33.9% | 47.5 | do not have a similar effect | – | – | – | – | – | – | – | – | –
[Mg+2] [Mg^++, magnesium ion] | does not increase the enzymatic rate of hydrolysis | 83.8% | increase the rate of enzymatic hydrolysis | 110.8% | do not significantly increase the rate of enzymatic hydrolysis | 96.0% | 92.4 | do not have a similar effect | – | – | – | – | – | – | – | – | –
manganese acetate [MnOAc] | – | – | – | – | – | – | – | – | 0.46 | 0.74 | 1.04 | 1.28 | 1.50 | 0 | – | – | –
manganese chloride [MnCl2] | – | – | – | – | – | – | – | – | 0.44 | 0.74 | 1.01 | 1.22 | 1.70 | 0 | – | – | –
[Li+] [Li^+, lithium ion] | does not increase the enzymatic rate of hydrolysis | 89.2% | do not significantly increase the rate of enzymatic hydrolysis | 101.6% | increase the rate of enzymatic hydrolysis | 118.1% | – | – | – | – | – | – | – | – | – | – | –
[Zn+2] [Zn^++] | does not increase the enzymatic rate of hydrolysis | 100.2% | do not significantly increase the rate of enzymatic hydrolysis | 70.6% | do not significantly increase the rate of enzymatic hydrolysis | 57.3% | – | – | – | – | – | – | – | – | – | – | –
[Sr+2] [Sr^++, strontium ion] | does not increase the enzymatic rate of hydrolysis | 87.2% | increase the rate of enzymatic hydrolysis | 114.1% | do not significantly increase the rate of enzymatic hydrolysis | 93.8% | – | – | – | – | – | – | – | – | – | – | –
[Ca+2] [Ca^++, calcium ions] | – | 119.1% and 94.8% and 99.4% and 90.0% | increase the rate of enzymatic hydrolysis | 114.1% and 127.2% and 121.2% | increase the rate of enzymatic hydrolysis | 103.8% and 104.4% and 97.4% | 97.3 | do not have a similar effect | – | – | – | – | – | – | 83.6 | 111.8% and 105.8% and 105.0% | 108.0
[Fe+2] [Fe^++] | does not increase the enzymatic rate of hydrolysis | 101.9% | do not significantly increase the rate of enzymatic hydrolysis | 88.7% | do not significantly increase the rate of enzymatic hydrolysis | 98.3% | 74.0 | do not have a similar effect | – | – | – | – | – | – | – | – | –
[Ba+2] [Ba^++, barium ion] | does not increase the enzymatic rate of hydrolysis | 98.1% | increase the rate of enzymatic hydrolysis | 114.6% | do not significantly increase the rate of enzymatic hydrolysis | 99.3% | – | – | – | – | – | – | – | – | – | – | –
O=C(O)CN(CCN(CC(=O)O)CC(=O)O)CC(=O)O.[Na].[Na] [Disodium EDTA, disodium ethylenediamine-tetraacetic acid] | does not increase the enzymatic rate of hydrolysis | 103.8% | do not significantly increase the rate of enzymatic hydrolysis | 100.4% | do not significantly increase the rate of enzymatic hydrolysis | 57.6% | 88.8 | do not have a similar effect | – | – | – | – | – | – | – | – | –
[Na+] [Na^+] | does not increase the enzymatic rate of hydrolysis | 84.2% | do not significantly increase the rate of enzymatic hydrolysis | 95.1% | do not significantly increase the rate of enzymatic hydrolysis | 97.3% | – | – | – | – | – | – | – | – | – | – | –
N [NH4^+] | does not increase the enzymatic rate of hydrolysis | 86.4% | do not significantly increase the rate of enzymatic hydrolysis | 95.1% | do not significantly increase the rate of enzymatic hydrolysis | 98.3% | – | – | – | – | – | – | – | – | – | – | –
O=S(=O)([O-])[O-].[Mn+2] [MnSO4, manganese sulfate] | – | – | – | – | – | – | – | – | 0.50 | 0.87 | 1.12 | 1.30 | 1.58 | 0 | – | – | –
[Al+3] [Al^+++] | does not increase the enzymatic rate of hydrolysis | 95.1% | do not significantly increase the rate of enzymatic hydrolysis | 77.5% | do not significantly increase the rate of enzymatic hydrolysis | 96.2% | – | – | – | – | – | – | – | – | – | – | –
